Measured values as given in patent US11642413B2, “Compounds for degrading Tau protein aggregates and uses thereof” (Aprinoia Therapeutics Limited, priority 2019, dated 2023).

Target: Tau aggregates in P301L-Tau-FL-GFP HEK293 cells (Homo sapiens (Human), UniProt P10636, P301L)
Experiment: Tau degradation assay (APNmAb005 ELISA-based Tau aggregation assay)
Type: cell-based
Conditions: 1 μM compound
Description: (A). Cell-based model of Tau inclusion formation: Six month old rTg4510 mouse brain lysates were used as the source of tau seeds, prepared as described in Example 26 above. P301L-Tau-FL-GFP HEK293 cells represent HEK293 cells express full-length human tau T40 (2N4R) carrying the P301L mutation with a GFP tag (P301L-Tau-FL-GFP). 1×10^6 of P301L-Tau-FL-GFP HEK293 cells were cultured on a 6-well plate in culture medium containing DMEM/F-12 (Gibco) supplemented with 10% fetal bovine serum (FBS) (Gibco), 1% Penicillin-Streptomycin (Gibco) and 0.5 mg/ml geneticin (Thermo Fisher Scientific) for 24 hours to reach 70-90% confluency, indicating the cells were ready for transfection. 50 μg of 6-month-old rTg4510 mouse brain lysate was diluted in 400 μL of serum free medium and mixed with 16 μL of lipofectamine 3000 reagent (Thermo Fisher Scientific) diluted in 400 μl of serum free medium. A solution mixture of rTg4510 brain lysate and lipofectamine 3000 was incubated at room temperature for 25 mins. The culture media were removed, and then a solution mixture of rTg4510 lysate and lipofectamine 3000 was added to the cells for transfection. The solution mixture was incubated at room temperature for five hours, followed by medium change to 10% fetal bovine serum (FBS). […]

Sequence of Tau aggregates in P301L-Tau-FL-GFP HEK293 cells (P10636 other isoform, or with tags, fused parts or gaps P301L): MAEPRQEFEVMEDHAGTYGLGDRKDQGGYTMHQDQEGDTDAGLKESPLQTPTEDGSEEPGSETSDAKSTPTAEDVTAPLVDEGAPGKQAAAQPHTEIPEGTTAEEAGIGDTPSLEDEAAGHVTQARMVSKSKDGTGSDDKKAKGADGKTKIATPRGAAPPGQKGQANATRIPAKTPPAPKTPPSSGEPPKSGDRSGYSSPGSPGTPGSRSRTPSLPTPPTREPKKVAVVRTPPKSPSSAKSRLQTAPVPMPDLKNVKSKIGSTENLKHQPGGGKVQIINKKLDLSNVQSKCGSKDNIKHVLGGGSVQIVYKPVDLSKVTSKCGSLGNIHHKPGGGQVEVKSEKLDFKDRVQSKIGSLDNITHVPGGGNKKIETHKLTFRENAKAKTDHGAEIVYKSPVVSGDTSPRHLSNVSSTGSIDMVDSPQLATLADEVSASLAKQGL

- Optical Density (O.D.) 450 value decrease compared to vehicle: 20%
SMILES: CN(C)c1ccc(-c2ccc(-c3cn4cccc(OCCOCCOc5ccc6c(c5)CN(C5CCC(=O)NC5=O)C6=O)c4n3)cc2)cn1 (stereo not shown) [Compound 162842]
